According to article PMC2706954, “Dissecting Structural and Functional Diversity of the Lantibiotic Mersacidin” (Chemistry & Biology, 2009):
Values after ≈ are worked out from the molar mass of the structure shown.

Tests used:
[1] = test system: S. aureus R33 MRSA; assay type: cell-based, Staphylococcus aureus; settings: R33
Procedure: (§1) Antibacterial activity of fermentation samples or purified samples was determined by Mueller-Hinton Agar diffusion bioassays using M. luteus ATCC 4698 as the indicator strain. Susceptibility testing (minimum inhibitory concentration [MIC]) for all aerobic organisms, with the exception of S. pneumoniae, was performed following the recommendations of CLSI. Susceptibility testing of S. pneumoniae was performed by two-fold serial dilutions in brain-heart-infusion broth supplemented with 50 μg/ml Ca^2+. Vancomycin was used as a reference antibiotic, and plates were incubated aerobically, with shaking, for 18–20 hr at 37°C with the MIC defined as the lowest concentration of drug that prevented visible growth.

[2] = test system: S. aureus SH1000; assay type: cell-based, Staphylococcus aureus; settings: SH1000
Procedure: as §1

[3] = test system: S. pneumoniae BAA-255; assay type: cell-based, Streptococcus pneumoniae; settings: BAA-255
Procedure: as §1

[4] = test system: E. faecalis ATCC29212; assay type: cell-based; settings: ATCC29212
Procedure: as §1

[5] = test system: E. faecium 7131121 VRE; assay type: cell-based; settings: 7131121 VRE
Procedure: as §1

[6] = test system: E. faecium ATCC19579; assay type: cell-based; settings: ATCC19579
Procedure: as §1

[7] = test system: S. epidermidis NCTC11047; assay type: cell-based; settings: NCTC11047
Procedure: as §1

[8] = test system: M. luteus ATCC4698; assay type: cell-based, Micrococcus luteus; settings: ATCC4698
Procedure: as §1

Row | Compound | MIC S. aureus R33 MRSA [1] [µg/mL] | MIC S. aureus SH1000 [2] [µg/mL] | MIC S. pneumoniae BAA-255 [3] | MIC E. faecalis ATCC29212 [4] [µg/mL] | MIC E. faecium 7131121 VRE [5] [µg/mL] | MIC E. faecium ATCC19579 [6] [µg/mL] | MIC S. epidermidis NCTC11047 [7] [µg/mL] | MIC M. luteus ATCC4698 [8] [µg/mL]
1 | C=C1NC(=O)C2NC(=O)[C@H](C(C)C)NC(=O)C(NC(=O)[C@@H]3CSC(C)C(NC(=O)[C@H](Cc4ccccc4)NC(=O)C4NC(=O)[C@@H](N)CSC4C)C(=O)N[C@@H](CC(C)C)C(=O)N4CCC[C@H]4C(=O)NCC(=O)NCC(=O)NCC(=O)NCC(=O)N[C@@H](C(C)C)C(=O)N3)C(C)SC[C@H](NC(=O)[C@H](CCC(=O)O)NC1=O)C(=O)N[C@@H]([C@@H](C)CC)C(=O)NC=CSC2C (some centres unmarked) [L14V] | 16 (≈ 8.83 µM) | 32 (≈ 17.7 µM) | 4 µg/mL (≈ 2.21 µM) | 64 (≈ 35.3 µM) | >64 | 64 (≈ 35.3 µM) | 16 (≈ 8.83 µM) | 
2 | C=C1NC(=O)C2NC(=O)[C@H](CCSC)NC(=O)C(NC(=O)[C@@H]3CSC(C)C(NC(=O)[C@H](Cc4ccccc4)NC(=O)C4NC(=O)[C@@H](N)CSC4C)C(=O)N[C@@H](CC(C)C)C(=O)N4CCC[C@H]4C(=O)NCC(=O)NCC(=O)NCC(=O)NCC(=O)N[C@@H](C(C)C)C(=O)N3)C(C)SC[C@H](NC(=O)[C@H](CCC(=O)O)NC1=O)C(=O)N[C@@H]([C@@H](C)CC)C(=O)NC=CSC2C (some centres unmarked) [L14M] | 16 (≈ 8.68 µM) | 32 (≈ 17.4 µM) | 4 µg/mL (≈ 2.17 µM) | 64 (≈ 34.7 µM) | 64 (≈ 34.7 µM) | 64 (≈ 34.7 µM) |  | 2 (≈ 1.08 µM)
3 | C=C1NC(=O)C2NC(=O)[C@H](CC(C)C)NC(=O)C(NC(=O)[C@@H]3CSC(C)C(NC(=O)[C@H](Cc4ccccc4)NC(=O)C4NC(=O)[C@@H](N)CSC4C)C(=O)N[C@@H](CC(C)C)C(=O)N4CCC[C@H]4C(=O)NCC(=O)N[C@@H](CCC(N)=O)C(=O)NCC(=O)NCC(=O)N[C@@H](C(C)C)C(=O)N3)C(C)SC[C@H](NC(=O)[C@H](CCC(=O)O)NC1=O)C(=O)N[C@@H]([C@@H](C)CC)C(=O)NC=CSC2C (some centres unmarked) [G8Q] | 32 (≈ 16.9 µM) | >64 |  | >64 | >64 | >64 |  | 8 (≈ 4.22 µM)
4 | C=C1NC(=O)C2NC(=O)[C@H]([C@@H](C)CC)NC(=O)C(NC(=O)[C@@H]3CSC(C)C(NC(=O)[C@H](Cc4ccccc4)NC(=O)C4NC(=O)[C@@H](N)CSC4C)C(=O)N[C@@H](CC(C)C)C(=O)N4CCC[C@H]4C(=O)NCC(=O)NCC(=O)NCC(=O)NCC(=O)N[C@@H](C(C)C)C(=O)N3)C(C)SC[C@H](NC(=O)[C@H](CCC(=O)O)NC1=O)C(=O)N[C@@H]([C@@H](C)CC)C(=O)NC=CSC2C (some centres unmarked) [L14I] | 8 (≈ 4.38 µM) | 32 (≈ 17.5 µM) | 1 µg/mL (≈ 0.548 µM) | 32 (≈ 17.5 µM) |  | 16 (≈ 8.76 µM) |  | 
5 | C=C1NC(=O)C2NC(=O)[C@H](CC(C)C)NC(=O)C(NC(=O)[C@@H]3CSC(C)C(NC(=O)[C@H](Cc4ccccc4)NC(=O)C4NC(=O)[C@@H](N)CSC4C)C(=O)N[C@@H](CC(C)C)C(=O)N4CCC[C@H]4C(=O)N[C@@H](CC(N)=O)C(=O)NCC(=O)NCC(=O)NCC(=O)N[C@@H](C(C)C)C(=O)N3)C(C)SC[C@H](NC(=O)[C@H](CCC(=O)O)NC1=O)C(=O)N[C@@H]([C@@H](C)CC)C(=O)NC=CSC2C (some centres unmarked) [G7N] |  | 64 (≈ 34 µM) | 16 µg/mL (≈ 8.5 µM) | >64 | >64 | 64 (≈ 34 µM) | 32 (≈ 17 µM) | < 4
6 | C=C1NC(=O)C2NC(=O)[C@H](CC(C)C)NC(=O)C(NC(=O)[C@@H]3CSC(C)C(NC(=O)[C@H](Cc4ccccc4)NC(=O)C4NC(=O)[C@@H](N)CSC4C)C(=O)N[C@@H](CC(C)C)C(=O)N4CCC[C@H]4C(=O)NCC(=O)NCC(=O)NCC(=O)N[C@@H](Cc4ccc(O)cc4)C(=O)N[C@@H](C(C)C)C(=O)N3)C(C)SC[C@H](NC(=O)[C@H](CCC(=O)O)NC1=O)C(=O)N[C@@H]([C@@H](C)CC)C(=O)NC=CSC2C (some centres unmarked) [G10Y] | 64 (≈ 33.1 µM) | >64 | < 4 µg/mL | 32 (≈ 16.6 µM) | >64 | 64 (≈ 33.1 µM) |  | < 4

Continued, values first:

Row | MIC S. aureus R33 MRSA [1] [µg/mL] | MIC S. aureus SH1000 [2] [µg/mL] | MIC S. pneumoniae BAA-255 [3] | MIC E. faecalis ATCC29212 [4] [µg/mL] | MIC E. faecium 7131121 VRE [5] [µg/mL] | MIC E. faecium ATCC19579 [6] [µg/mL] | MIC S. epidermidis NCTC11047 [7] [µg/mL] | MIC M. luteus ATCC4698 [8] [µg/mL] | Compound
7 | 32 (≈ 17.2 µM) | 64 (≈ 34.4 µM) | 32 µg/mL (≈ 17.2 µM) | 64 (≈ 34.4 µM) | 64 (≈ 34.4 µM) | 32 (≈ 17.2 µM) |  | 16 (≈ 8.61 µM) | C=C1NC(=O)C2NC(=O)[C@H](CC(C)C)NC(=O)C(NC(=O)[C@@H]3CSC(C)C(NC(=O)[C@H](Cc4ccccc4)NC(=O)C4NC(=O)[C@@H](N)CSC4C)C(=O)N[C@@H](CC(C)C)C(=O)N4CCC[C@H]4C(=O)NCC(=O)NCC(=O)NCC(=O)NCC(=O)N[C@@H](CCSC)C(=O)N3)C(C)SC[C@H](NC(=O)[C@H](CCC(=O)O)NC1=O)C(=O)N[C@@H]([C@@H](C)CC)C(=O)NC=CSC2C (some centres unmarked) [V11M]
8 |  | 64 (≈ 34.3 µM) | 64, >64 μg/ml | >64 | >64 | >64 |  | 16 (≈ 8.57 µM) | C=C1NC(=O)C2NC(=O)[C@H](CC(C)C)NC(=O)C(NC(=O)[C@@H]3CSC(C)C(NC(=O)[C@H](Cc4ccccc4)NC(=O)C4NC(=O)[C@@H](N)CSC4C)C(=O)N[C@@H](CC(C)C)C(=O)N[C@@H](Cc4c[nH]cn4)C(=O)NCC(=O)NCC(=O)NCC(=O)NCC(=O)N[C@@H](C(C)C)C(=O)N3)C(C)SC[C@H](NC(=O)[C@H](CCC(=O)O)NC1=O)C(=O)N[C@@H]([C@@H](C)CC)C(=O)NC=CSC2C (some centres unmarked) [P6H]
9 | 16 (≈ 8.82 µM) | 32 (≈ 17.6 µM) | 2 µg/mL (≈ 1.1 µM) | 64 (≈ 35.3 µM) | 64 (≈ 35.3 µM) | 32 (≈ 17.6 µM) | 16 (≈ 8.82 µM) |  | CC[C@H](C)[C@@H]1NC(=O)[C@@H]2CSC(C)C(NC(=O)[C@@H]3CSC(C)C(NC(=O)[C@H](Cc4ccccc4)NC(=O)C4NC(=O)[C@@H](N)CSC4C)C(=O)N[C@@H](CC(C)C)C(=O)N4CCC[C@H]4C(=O)NCC(=O)NCC(=O)NCC(=O)NCC(=O)N[C@@H](C(C)C)C(=O)N3)C(=O)N[C@@H](CC(C)C)C(=O)NC(C(=O)NCC(=O)N[C@@H](CCC(=O)O)C(=O)N2)C(C)SC=CNC1=O (some centres unmarked) [S16G]
10 | 32 (≈ 17.4 µM) | 64 (≈ 34.8 µM) |  | 64 (≈ 34.8 µM) | 32 (≈ 17.4 µM) | 32 (≈ 17.4 µM) | 16 (≈ 8.69 µM) |  | C=C1NC(=O)C2NC(=O)[C@H](CC(C)C)NC(=O)C(NC(=O)[C@@H]3CSC(C)C(NC(=O)[C@H](Cc4ccccc4)NC(=O)C4NC(=O)[C@@H](N)CSC4C)C(=O)N[C@@H](CC(C)C)C(=O)N4CCC[C@H]4C(=O)NCC(=O)NCC(=O)NCC(=O)NCC(=O)N[C@@H](CC(C)C)C(=O)N3)C(C)SC[C@H](NC(=O)[C@H](CCC(=O)O)NC1=O)C(=O)N[C@@H]([C@@H](C)CC)C(=O)NC=CSC2C (some centres unmarked) [V11L]
